Test results from patent US20130029381A1, “MICROORGANISMS FOR THE PRODUCTION OF 1,4-BUTANEDIOL, 4-HYDROXYBUTANAL, 4-HYDROXYBUTYRYL-COA, PUTRESCINE AND RELATED COMPOUNDS, AND METHODS RELATED THERETO” (GENOMATICA, INC., priority 2009, published 2013).

Biological target: T1, L(+)-lactate dehydrogenase from A. eutrophus (Cupriavidus necator, UniProt Q07251)
T1 sequence (Q07251 1-349): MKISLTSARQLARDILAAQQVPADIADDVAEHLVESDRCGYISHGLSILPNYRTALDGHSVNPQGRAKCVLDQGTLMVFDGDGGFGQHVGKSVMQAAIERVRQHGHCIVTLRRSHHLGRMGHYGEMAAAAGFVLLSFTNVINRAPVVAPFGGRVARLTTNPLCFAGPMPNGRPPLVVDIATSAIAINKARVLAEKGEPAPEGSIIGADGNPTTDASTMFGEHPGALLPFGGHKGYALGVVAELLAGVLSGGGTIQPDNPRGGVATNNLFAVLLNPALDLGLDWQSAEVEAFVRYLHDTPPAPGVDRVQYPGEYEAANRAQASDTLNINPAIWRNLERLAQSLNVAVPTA
Experiment: not given
Conditions: compared with that on pyruvate; cited from earlier work

Point of comparison: `O=C(O)C(=O)CF` [3-Fluoropyruvate], “Activity (%) of L(+)-lactate dehydrogenase from A. eutrophus” value 33.6%. Against it:
- CCC(=O)C(=O)O [2-Oxobutyrate] — higher, 107.0%
- O=C(O)CCC(=O)C(=O)O [2-Oxoglutarate] — higher, 79.6%
- CCCC(=O)C(=O)O [2-Oxovalerate] — higher, 125.0%
- CC(C)C(=O)C(=O)O [3-Methyl-2-oxobutyrate] — lower, 28.5%

Biological target: T2, L(+)-lactate dehydrogenase from rabbit muscle (Oryctolagus cuniculus, UniProt P13491)
T2 construct: rabbit muscle; host or cells: rabbit muscle
Experiment: not given
Conditions: compared with that on pyruvate; cited from earlier work

For `O=CC(=O)O` [Glyoxylate], the “Activity (%) of L(+)-lactate dehydrogenase from rabbit muscle” value is listed as 23.9%.

Biological target: homoserine kinase (Escherichia coli, UniProt P00547)
Sequence (P00547 whole entry): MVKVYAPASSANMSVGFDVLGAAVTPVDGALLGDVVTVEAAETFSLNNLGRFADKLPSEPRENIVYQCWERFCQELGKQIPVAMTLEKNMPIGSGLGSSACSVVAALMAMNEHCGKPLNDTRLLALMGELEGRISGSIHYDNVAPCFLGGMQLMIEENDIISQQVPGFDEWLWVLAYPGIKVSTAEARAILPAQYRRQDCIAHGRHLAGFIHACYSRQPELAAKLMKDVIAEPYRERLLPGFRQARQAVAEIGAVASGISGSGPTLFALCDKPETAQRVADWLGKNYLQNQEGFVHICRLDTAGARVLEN
Experiment: not given
Conditions: cited from earlier work

Point of comparison: `N[C@H](CO)CCO` [L-2-amino-1,4-butanediol], Km 11.6 ± 6.5 mM. Against it:
- N[C@H](CCO)C(=O)O [D-homoserine] — 2.7-fold higher, 31.8 ± 7.2 mM
- CCOC(=O)[C@@H](N)CCO [L-homoserine ethyl ester] — 6.1-fold lower, 1.9 ± 0.5 mM
- CC(C)COC(=O)[C@@H](N)CCO [L-homoserine isobutyl ester] — within error, 6.9 ± 1.1 mM
- CC(C)OC(=O)[C@@H](N)CCO [L-homoserine isopropyl ester] — 9.7-fold lower, 1.2 ± 0.5 mM
- COC(=O)[C@@H](N)CCO [L-homoserine methyl ester] — within error, 4.9 ± 2 mM
- CCCOC(=O)[C@@H](N)CCO [L-homoserine n-propyl ester] — 3.3-fold lower, 3.5 ± 0.4 mM
- N[C@@H](CCO)C(=O)O [L-homoserine] — 83-fold lower, 0.14 ± 0.04 mM

System: CCCC=O
Experiment: ADH enzyme assay of Adh1 (084), Km for aldehyde substrates
Format: biochemical, Geobacillus thermoglucosidasius
Conditions: other: reductive ADH assay, enzyme expressed in E. coli; pH 7.5
Excerpt: (§1) The Adh1 enzyme (084) expressed very well from its native gene in E. coli (see FIG. 32A).

Work on “Adh1 enzyme (084) (Geobacillus sp. M10EXG)” yielded a Km of 1.2 mM.

System: O=CCCCO
Experiment: as above
Format: biochemical, Geobacillus thermoglucosidasius
Conditions: other: reductive ADH assay, enzyme expressed in E. coli; pH 7.5
Excerpt: as §1

Work on “Adh1 enzyme (084) (Geobacillus sp. M10EXG)” yielded a Km of 4.0 mM.
